From ChEMBL document CHEMBL1201862, “PubChem BioAssay data set” (2004)
Values belong to the molecule of their own block, whether it stands above or below them. Active and inactive are the calls of the source.

How the values were obtained:
[1] = molecular target: T1, Heat shock factor protein 1 (Mus musculus, UniProt P38532); experiment: decrease of HSF1-responsive luciferase luminescence – cell-based, NIH3T3, dose retest, confirmation (AID 2382); type: functional;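 also: NIH3T3 fibroblasts with HSF1-driven luciferase reporter stressed by proteasome inhibitor MG132; luminescence from HSF1-driven luciferase expression after 8 hours of MG132 stress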
T1 sequence (P38532 whole entry): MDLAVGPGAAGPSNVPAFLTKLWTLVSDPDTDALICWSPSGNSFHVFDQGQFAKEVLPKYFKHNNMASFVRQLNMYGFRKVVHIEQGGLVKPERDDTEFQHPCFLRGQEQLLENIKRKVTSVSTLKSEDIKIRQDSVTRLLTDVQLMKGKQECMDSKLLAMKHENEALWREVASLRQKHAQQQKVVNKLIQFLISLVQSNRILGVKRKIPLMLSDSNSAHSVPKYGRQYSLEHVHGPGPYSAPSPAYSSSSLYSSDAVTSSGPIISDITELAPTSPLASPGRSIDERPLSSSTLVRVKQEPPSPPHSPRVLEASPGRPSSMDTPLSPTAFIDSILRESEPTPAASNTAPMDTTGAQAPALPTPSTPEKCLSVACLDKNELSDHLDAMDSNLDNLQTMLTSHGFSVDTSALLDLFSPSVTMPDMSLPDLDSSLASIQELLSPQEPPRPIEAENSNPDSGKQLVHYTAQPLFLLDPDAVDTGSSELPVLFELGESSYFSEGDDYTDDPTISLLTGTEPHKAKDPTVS

Cytochrome P450 2D6 = Cytochrome P450 2D6 (Homo sapiens, UniProt P10635);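 also: CYP2D6 member of a cytochrome P450 panel assay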
Cytochrome P450 1A2 = molecular target: T2, Cytochrome P450 1A2 (Homo sapiens, UniProt P05177);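 also: PubChem cytochrome P450 panel assay, CYP1A2 panel member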
T2 sequence (P05177 whole entry): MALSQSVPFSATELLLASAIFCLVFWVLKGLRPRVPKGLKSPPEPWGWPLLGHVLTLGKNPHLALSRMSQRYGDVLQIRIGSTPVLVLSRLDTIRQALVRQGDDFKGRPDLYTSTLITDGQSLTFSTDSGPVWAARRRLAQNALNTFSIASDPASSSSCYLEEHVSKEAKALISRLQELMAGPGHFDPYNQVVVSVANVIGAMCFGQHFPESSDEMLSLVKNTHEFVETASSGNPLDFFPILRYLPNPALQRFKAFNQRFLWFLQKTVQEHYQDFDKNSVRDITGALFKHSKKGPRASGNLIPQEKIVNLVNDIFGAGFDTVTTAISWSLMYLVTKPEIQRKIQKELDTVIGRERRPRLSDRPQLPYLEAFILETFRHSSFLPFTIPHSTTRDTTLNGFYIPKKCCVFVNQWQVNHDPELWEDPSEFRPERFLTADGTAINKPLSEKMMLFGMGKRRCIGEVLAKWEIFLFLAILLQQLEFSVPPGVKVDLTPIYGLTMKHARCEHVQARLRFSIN

Cytochrome P450 3A4 = Cytochrome P450 3A4 (Homo sapiens, UniProt P08684);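 also: CYP3A4 tested as one member of a cytochrome P450 panel screen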
Cytochrome P450 2C19 = Cytochrome P450 2C19 (Homo sapiens, UniProt P33261); experiment: Cytochrome panel assay with activity outcomes. Panel member name: p450-cyp2c19 Compounds with AC50 equal or less than 10 uM are considered active; type: functional
Cytochrome P450 2C9 = Cytochrome P450 2C9 (Homo sapiens, UniProt P11712)
Cytochrome P450 2C9, sequence (P11712 whole entry): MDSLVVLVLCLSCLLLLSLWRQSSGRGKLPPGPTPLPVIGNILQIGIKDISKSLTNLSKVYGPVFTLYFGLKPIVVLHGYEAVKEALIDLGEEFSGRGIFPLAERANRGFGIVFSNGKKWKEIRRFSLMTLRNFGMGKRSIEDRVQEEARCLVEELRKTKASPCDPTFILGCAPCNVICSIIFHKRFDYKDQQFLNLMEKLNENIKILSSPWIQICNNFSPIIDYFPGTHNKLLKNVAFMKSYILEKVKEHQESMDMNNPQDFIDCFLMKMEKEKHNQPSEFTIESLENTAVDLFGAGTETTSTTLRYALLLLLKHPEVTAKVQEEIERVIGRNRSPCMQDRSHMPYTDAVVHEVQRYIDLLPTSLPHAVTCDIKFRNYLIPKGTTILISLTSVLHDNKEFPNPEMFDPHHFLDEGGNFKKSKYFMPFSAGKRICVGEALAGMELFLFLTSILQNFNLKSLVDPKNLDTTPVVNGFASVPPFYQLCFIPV

Cytochrome P450 2C19, sequence (P33261 whole entry): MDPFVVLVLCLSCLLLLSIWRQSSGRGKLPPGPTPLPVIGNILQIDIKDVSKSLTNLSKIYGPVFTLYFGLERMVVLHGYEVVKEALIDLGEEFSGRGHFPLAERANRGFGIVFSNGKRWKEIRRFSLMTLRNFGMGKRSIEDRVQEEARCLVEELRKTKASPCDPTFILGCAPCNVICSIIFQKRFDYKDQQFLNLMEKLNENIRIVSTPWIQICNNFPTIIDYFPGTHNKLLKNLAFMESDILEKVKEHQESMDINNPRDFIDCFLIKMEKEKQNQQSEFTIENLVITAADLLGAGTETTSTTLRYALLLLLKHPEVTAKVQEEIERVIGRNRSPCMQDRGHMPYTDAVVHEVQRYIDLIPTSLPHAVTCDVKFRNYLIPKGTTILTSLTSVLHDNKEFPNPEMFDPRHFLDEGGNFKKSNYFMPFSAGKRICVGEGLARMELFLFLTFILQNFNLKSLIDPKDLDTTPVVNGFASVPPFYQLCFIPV
Cytochrome P450 2D6, sequence (P10635 whole entry): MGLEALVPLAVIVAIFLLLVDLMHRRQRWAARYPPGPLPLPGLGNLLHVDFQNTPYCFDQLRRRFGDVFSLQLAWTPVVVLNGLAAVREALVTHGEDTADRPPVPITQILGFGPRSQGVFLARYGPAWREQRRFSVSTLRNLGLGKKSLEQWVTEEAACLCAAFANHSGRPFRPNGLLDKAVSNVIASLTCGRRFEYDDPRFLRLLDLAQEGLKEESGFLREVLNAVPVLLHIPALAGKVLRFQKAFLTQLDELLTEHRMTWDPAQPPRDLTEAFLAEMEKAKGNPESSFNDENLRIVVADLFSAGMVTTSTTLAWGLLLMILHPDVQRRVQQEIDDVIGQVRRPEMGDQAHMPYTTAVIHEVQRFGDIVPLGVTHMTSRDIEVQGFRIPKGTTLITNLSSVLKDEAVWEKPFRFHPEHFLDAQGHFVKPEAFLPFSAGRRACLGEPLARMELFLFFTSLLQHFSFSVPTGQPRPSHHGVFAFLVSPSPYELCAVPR
Cytochrome P450 3A4, sequence (P08684 whole entry): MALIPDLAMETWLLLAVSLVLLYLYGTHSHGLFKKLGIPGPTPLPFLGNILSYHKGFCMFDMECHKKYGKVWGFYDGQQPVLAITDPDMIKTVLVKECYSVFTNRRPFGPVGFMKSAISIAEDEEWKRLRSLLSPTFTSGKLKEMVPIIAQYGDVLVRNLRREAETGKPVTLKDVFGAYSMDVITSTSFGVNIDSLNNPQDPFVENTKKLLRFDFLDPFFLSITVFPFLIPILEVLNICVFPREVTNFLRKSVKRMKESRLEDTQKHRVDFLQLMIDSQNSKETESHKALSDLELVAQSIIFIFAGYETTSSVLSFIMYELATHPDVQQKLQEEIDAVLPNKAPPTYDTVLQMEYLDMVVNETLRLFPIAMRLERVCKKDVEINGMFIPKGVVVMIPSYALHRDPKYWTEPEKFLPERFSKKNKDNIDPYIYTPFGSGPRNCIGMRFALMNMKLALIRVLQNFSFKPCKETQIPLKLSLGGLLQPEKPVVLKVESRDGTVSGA

AC50 (Cytochrome P450 2D6): 20 µM (inconclusive)
Compound: COC(=O)[C@@]1(Cc2ccc(F)cc2)[C@H]2c3cc(C(=O)N(C)C)n(Cc4ccc(C(F)(F)F)nc4)c3C[C@H]2CN1C(=O)c1ccccc1

AC50 (Cytochrome P450 2D6): 15.8 µM (inconclusive)
AC50 (Cytochrome P450 1A2): 15.8 µM (inconclusive)
AC50 (Cytochrome P450 3A4): 20 µM (inconclusive)
AC50 (Cytochrome P450 2C19; read-out: AC50): 39.8 µM (inconclusive)
Compound: COc1ccc(-c2nc3cnc(N4CCNCC4)nc3n(CCc3ccccc3)c2=O)cc1

AC50 (Cytochrome P450 2C9): 1 µM (inconclusive)
Compound: COc1ccc(CNc2nc(-c3c(C)noc3C)nc3ccccc23)c(OC)c1

AC50 (Cytochrome P450 2D6): 39.8 µM (inconclusive)
Compound: COC(=O)[C@@]1(Cc2ccc(F)cc2)[C@H]2c3cc(C(=O)N(C)C)n(Cc4ccc(C)o4)c3C[C@H]2CN1C(=O)c1ccccc1

AC50 (Cytochrome P450 2D6): 15.8 µM (inconclusive)
Compound: CC(C)OC(=O)c1nnn(-c2nonc2N)c1CSc1ccccn1

EC50 [1]: > 195 µM (not active)
Compound: COc1ccc(-c2nn(-c3ccccc3)cc2/C=C(\CC(=O)O)c2nc3ccccc3s2)cc1OC

EC50 [1]: > 195 µM (not active)
Compound: Fc1ccc(-n2cc(CNCCc3ccccn3)c(-c3ccccc3Cl)n2)cc1

AC50 (Cytochrome P450 2C9): 31.6 µM (inconclusive)
Compound: O=C(c1ccncc1)N1CCC2(CC1)CN(c1ccncc1)C2

AC50 (Cytochrome P450 2C9): 15.8 µM (inconclusive)
Compound: CN(C)CCCn1cc(C2=C(c3c[nH]c4ccccc34)C(=O)NC2=O)c2ccccc21 [GF-109203]

AC50 (Cytochrome P450 2D6): 31.6 µM (inconclusive)
AC50 (Cytochrome P450 1A2): 31.6 µM (inconclusive)
AC50 (Cytochrome P450 2C19): inconclusive
Compound: CN1CCN(c2ncncc2-c2ccoc2)CC1

AC50 (Cytochrome P450 2C9): 8.91 µM (inconclusive)
Compound: CCCCN(C(=O)NC(=O)Nc1ccccc1OCC)S(C)(=O)=O

EC50 [1]: > 195 µM (not active)
Compound: Cc1ccc(-c2n[nH]cc2/C=N/n2c(C)nc3ccccc3c2=O)cc1

AC50 (Cytochrome P450 1A2): 15.8 µM (inconclusive)
AC50 (Cytochrome P450 2C9): 15.8 µM (inconclusive)
Compound: CC(C)(C)NC(=O)C(=O)N/N=C/c1ccc(Br)cc1

AC50 (Cytochrome P450 3A4): 12.6 µM (inconclusive)
Compound: C[C@@H](C(=O)O)[C@H]1C[C@]1(C)[C@H](NC(=O)OCc1ccccc1)c1ccccc1

EC50 [1]: > 195 µM (not active)
Compound: O=C(CN1CCN(Cc2ccccc2)CC1)N/N=C\C=C/c1ccco1

EC50 [1]: > 195 µM (not active)
Compound: CCc1nnc(NC(=O)CSc2nc(C)c3c(c2C#N)CCCC3)s1

AC50 (Cytochrome P450 2D6): 10 µM (inconclusive)
AC50 (Cytochrome P450 3A4): 39.8 µM (inconclusive)
Compound: O=C(c1csnn1)N1CCC2(CC1)CN(c1cccc(-c3ccccc3)c1)C2

AC50 (Cytochrome P450 2D6): 39.8 µM (inconclusive)
AC50 (Cytochrome P450 1A2): 25.1 µM (inconclusive)
Compound: COC(=O)N1CCC2(CCN(C(=O)Nc3ccc(OC)cc3)CC2)CC1

AC50 (Cytochrome P450 3A4): 35.5 µM (inconclusive)
AC50 (Cytochrome P450 2C19; read-out: AC50): 39.8 µM (inconclusive)
Compound: CCCc1nc2sc3ccccc3c(=O)c2c(=O)n1CCOC

AC50 (Cytochrome P450 2C9): 10 µM (inconclusive)
Compound: Clc1ccc(/C=N/c2c(-c3ccc(Cl)cc3)nc3n2CCS3)cc1

AC50 (Cytochrome P450 3A4): 6.31 µM (inconclusive)
AC50 (Cytochrome P450 2C19; read-out: AC50): 5.01 µM (inconclusive)
Compound: COc1ccc(/C=N\c2c(O)ccc3ccccc23)cc1OC

AC50 (Cytochrome P450 1A2): 28.2 µM (inconclusive)
AC50 (Cytochrome P450 3A4): 14.1 µM (inconclusive)
AC50 (Cytochrome P450 2C19; read-out: AC50): 17.8 µM (inconclusive)
Compound: COc1cc(/C=C/C(=O)Nc2ccccc2C(F)(F)F)cc(OC)c1OC

EC50 [1]: < 0.16 µM (active)
Compound: O=C(Nc1ccc(F)cc1F)c1cc2nc3c(c(C(F)(F)F)n2n1)CCCC3

AC50 (Cytochrome P450 3A4): 31.6 µM (inconclusive)
Compound: COc1cccc(-c2ccc3ncnc(NC4CCNCC4)c3c2)c1

AC50 (Cytochrome P450 3A4): 25.1 µM (inconclusive)
Compound: Cn1cccc1C(=O)N1CCC[C@@]2(CCN(C(=O)Nc3cccc(C#N)c3)C2)C1

EC50 [1]: > 195 µM (not active)
Compound: O=C(CCN1C(=O)/C(=C/c2ccc(F)cc2)SC1=S)NCCCn1ccnc1

AC50 (Cytochrome P450 2D6): 15.8 µM (inconclusive)
AC50 (Cytochrome P450 1A2): 12.6 µM (inconclusive)
Compound: C[C@@H](C(=O)NCc1nc2ccccc2[nH]1)[C@@H]1C[C@@]1(C)[C@@H](NC(=O)OCc1ccccc1)c1ccccc1

EC50 [1]: > 195 µM (not active)
Compound: CCC(=O)N(CCC(c1ccco1)c1ccccc1OC)Cc1cccs1 (stereo not given)

AC50 (Cytochrome P450 3A4): 25.1 µM (inconclusive)
Compound: O=C(NNS(=O)(=O)c1ccc(Cl)cc1)c1cnn(-c2ccccc2)c1-n1cccc1

AC50 (Cytochrome P450 2D6): 0.794 µM (inconclusive)
Compound: COc1ccc(O[C@H]2C=C[C@@H](c3ccccc3)O[C@H]2COC(=O)CC/C(C)=N/OCC[C@@H]2C=C[C@H](OC(C)=O)[C@H](COC(C)=O)O2)cc1

AC50 (Cytochrome P450 2C9): 15.8 µM (inconclusive)
Compound: CC(=O)NCCc1c(Cc2ccccc2)[nH]c2ccccc12 [LUZINDOLE]

AC50 (Cytochrome P450 3A4): 14.1 µM (inconclusive)
Compound: O=C(CC1CCCCC1)N1CCC(c2nc(-c3ccc(S(=O)(=O)N4CCCC4)cc3)no2)CC1

The next lines start with the molecule.

Compound: O=C(Nc1ccc(Cl)cc1)C1CCCN1C(=O)NCc1ccccc1 (stereo not given)
EC50 [1]: > 195 µM (not active)

Compound: O=C(O)/C=C\C(=O)Nc1ccc2c(c1)-c1ccccc1C2
AC50 (Cytochrome P450 1A2): 1 µM (inconclusive)
AC50 (Cytochrome P450 3A4): 3.98 µM (inconclusive)

Compound: c1ccc(CNc2ncncc2-c2cccnc2)cc1
AC50 (Cytochrome P450 2D6): 39.8 µM (inconclusive)

Compound: CC(C)(C)N(NC(=O)c1ccccc1)C(=O)c1cccc(C(=O)N(NC(=O)c2ccccc2)C(C)(C)C)c1
AC50 (Cytochrome P450 3A4): 3.98 µM (inconclusive)
AC50 (Cytochrome P450 2C19): inconclusive

Compound: O=C(C[C@@H](c1ccccc1)N1CCCCC1)c1ccccc1
AC50 (Cytochrome P450 2C9): 3.16 µM (inconclusive)

Compound: Cc1cc(NC(=O)Cn2ccc([N+](=O)[O-])n2)no1
EC50 [1]: > 195 µM (not active)

Compound: C/C(Cc1ccccc1)=N\NC(=O)CNC(=O)Cc1ccc(Cl)cc1
EC50 [1]: > 195 µM (not active)

Compound: [H]/N=C(\N/C(=N/[H])Nc1ccc(Cl)cc1)NC(C)C [PROGUANIL]
AC50 (Cytochrome P450 2D6): 10 µM (inconclusive)

Compound: C[C@@H](C(=O)O)[C@@H]1C[C@@]1(C)[C@@H](NC(=O)OCc1ccccc1)c1ccccc1
AC50 (Cytochrome P450 3A4): 15.8 µM (inconclusive)

Compound: CC(NC(=O)Cn1cnc([N+](=O)[O-])n1)c1ccccc1 (stereo not given)
AC50 (Cytochrome P450 2C9): 35.5 µM (inconclusive)

Compound: CCc1ccc(N/C(SCc2ccccc2C)=C(/C#N)C(=O)NCc2ccco2)cc1
AC50 (Cytochrome P450 2D6): 15.8 µM (inconclusive)
AC50 (Cytochrome P450 1A2): 7.08 µM (inconclusive)

Compound: O=C(Cn1nnc2ccccc21)N1CCCCC1
AC50 (Cytochrome P450 2C19; read-out: AC50): 22.4 µM (inconclusive)
AC50 (Cytochrome P450 2C9): 0.00562 µM (inconclusive)

Compound: Cc1oc(/C=N/NC(=O)CC2(C)OCCO2)cc1Br
EC50 [1]: > 195 µM (not active)

Compound: Cn1cc(/C=N/n2cnc3scc(-c4ccccc4)c3c2=O)c2ccccc21
AC50 (Cytochrome P450 3A4): 3.98 µM (inconclusive)

Compound: CC(=O)OC[C@@H]1O[C@H](C/C=N\OC[C@@H](C)[C@H](OCc2ccccc2)C(C)C)C=C[C@@H]1OC(C)=O
AC50 (Cytochrome P450 2C9): 6.31 µM (inconclusive)

Compound: Cc1cc(=O)oc2c(C)c(OC(C)C(=O)NCCCN3CCOCC3)ccc12 (stereo not given)
EC50 [1]: > 195 µM (not active)

Compound: Cc1ccc(-c2nc3ccccc3s2)cc1NC(=S)NC(=O)c1ccccc1
AC50 (Cytochrome P450 1A2): 15.8 µM (inconclusive)
AC50 (Cytochrome P450 3A4): 14.1 µM (inconclusive)
AC50 (Cytochrome P450 2C19; read-out: AC50): 22.4 µM (inconclusive)

Compound: CC(C)c1ccc2oc(=O)cc(CN3CCCCC3)c2c1
EC50 [1]: > 195 µM (not active)

Compound: COc1cccc(Nc2ncc3nc(CCc4ccccc4)c(=O)n(C4CC4)c3n2)c1
AC50 (Cytochrome P450 1A2): 5.01 µM (inconclusive)
AC50 (Cytochrome P450 3A4): 10 µM (inconclusive)

Compound: Cc1ccc2[nH]c(-c3ccc(NC(=O)Cc4cccs4)cc3)nc2c1
AC50 (Cytochrome P450 2C19; read-out: AC50): 1 µM (inconclusive)
AC50 (Cytochrome P450 2C9): 0.708 µM (inconclusive)

Compound: CCN(Cc1ccccc1)S(=O)(=O)c1ccc(F)cc1
EC50 [1]: > 195 µM (not active)

Compound: CC(C)C[C@H]1C(=O)N2CCC[C@@H]2[C@]2(O)O[C@](NC(=O)[C@@H]3C=C4c5cccc6[nH]c(Br)c(c56)C[C@H]4N(C)C3)(C(C)C)C(=O)N12
AC50 (Cytochrome P450 2C9): 10 µM (inconclusive)

Compound: c1cncc(CNc2nc(-c3cccnc3)nc3ccccc23)c1
AC50 (Cytochrome P450 2D6): 20 µM (inconclusive)
AC50 (Cytochrome P450 1A2): 0.316 µM (active)
AC50 (Cytochrome P450 2C19; read-out: AC50): 39.8 µM (inconclusive)

Compound: O=C(N/N=C(\c1ccccc1)c1cccnc1)C(O)(c1ccccc1)c1ccccc1
AC50 (Cytochrome P450 2C9): 0.794 µM (inconclusive)

Compound: CCNc1ncc2nc(C)c(=O)n(C)c2n1
AC50 (Cytochrome P450 2D6): 39.8 µM (inconclusive)

Compound: O=C(CSc1nnc(COc2ccccc2)n1-c1ccccc1)c1ccccc1
AC50 (Cytochrome P450 2D6): 31.6 µM (inconclusive)
AC50 (Cytochrome P450 1A2): 28.2 µM (inconclusive)

Compound: c1ccc(CN2CCCC3(CCNCC3)C2)cc1
AC50 (Cytochrome P450 2D6): 12.6 µM (inconclusive)

Compound: O=C(CC(Nc1ccccc1Cl)C(=O)OCC(=O)c1cccs1)c1ccccc1 (stereo not given)
EC50 [1]: 0.847 µM (active)

Compound: CCN(CC)C[C@@H](O)c1ccc2ccc3ccccc3c2c1
AC50 (Cytochrome P450 2D6): 3.16 µM (inconclusive)
